Results as given in ChEMBL document CHEMBL3124816, “Preparation and optimization of new 4-(2-(indolin-1-yl)-2-oxoethyl)-2-morpholinothiazole-5-carboxylic acid and amide derivatives as potent and selective PI3Kβ inhibitors” (Bioorg Med Chem Lett, 2014).
In brackets after ≈: the same amount, converted by molar mass. Activity calls are given as the source filed them. The calls are words filed in the database; no cut-off is given here.

Assays:
[1] = target: Phosphatidylinositol 4,5-bisphosphate 3-kinase catalytic subunit alpha isoform (Homo sapiens, UniProt P42336); experiment: Inhibition of human PI3Kalpha after 15 mins
[2] = Drug metabolism in mouse liver microsomes assessed as compound lability; assay type: ADME, Microsome; conditions: for metabolised: liver microsomes, read-out: Drug metabolism; for Drug metabolism: microsomes
[3] = target: Cytochrome P450 3A4 (Homo sapiens, UniProt P08684); experiment: Inhibition of human recombinant CYP3A4
[4] = target: T1, Phosphatidylinositol 4,5-bisphosphate 3-kinase catalytic subunit beta isoform (Homo sapiens, UniProt P42338); experiment: Inhibition of human PI3Kbeta after 15 mins
[5] = Efflux ratio of permeability from basolateral to apical side over apical to basolateral side in human Caco2 cells; assay type: ADME, cell-based; conditions: Caco-2
[6] = target: T2, Phosphatidylinositol 4,5-bisphosphate 3-kinase catalytic subunit delta isoform (Homo sapiens, UniProt O00329); experiment: Inhibition of human PI3Kdelta after 15 mins
T2 sequence (O00329 whole entry): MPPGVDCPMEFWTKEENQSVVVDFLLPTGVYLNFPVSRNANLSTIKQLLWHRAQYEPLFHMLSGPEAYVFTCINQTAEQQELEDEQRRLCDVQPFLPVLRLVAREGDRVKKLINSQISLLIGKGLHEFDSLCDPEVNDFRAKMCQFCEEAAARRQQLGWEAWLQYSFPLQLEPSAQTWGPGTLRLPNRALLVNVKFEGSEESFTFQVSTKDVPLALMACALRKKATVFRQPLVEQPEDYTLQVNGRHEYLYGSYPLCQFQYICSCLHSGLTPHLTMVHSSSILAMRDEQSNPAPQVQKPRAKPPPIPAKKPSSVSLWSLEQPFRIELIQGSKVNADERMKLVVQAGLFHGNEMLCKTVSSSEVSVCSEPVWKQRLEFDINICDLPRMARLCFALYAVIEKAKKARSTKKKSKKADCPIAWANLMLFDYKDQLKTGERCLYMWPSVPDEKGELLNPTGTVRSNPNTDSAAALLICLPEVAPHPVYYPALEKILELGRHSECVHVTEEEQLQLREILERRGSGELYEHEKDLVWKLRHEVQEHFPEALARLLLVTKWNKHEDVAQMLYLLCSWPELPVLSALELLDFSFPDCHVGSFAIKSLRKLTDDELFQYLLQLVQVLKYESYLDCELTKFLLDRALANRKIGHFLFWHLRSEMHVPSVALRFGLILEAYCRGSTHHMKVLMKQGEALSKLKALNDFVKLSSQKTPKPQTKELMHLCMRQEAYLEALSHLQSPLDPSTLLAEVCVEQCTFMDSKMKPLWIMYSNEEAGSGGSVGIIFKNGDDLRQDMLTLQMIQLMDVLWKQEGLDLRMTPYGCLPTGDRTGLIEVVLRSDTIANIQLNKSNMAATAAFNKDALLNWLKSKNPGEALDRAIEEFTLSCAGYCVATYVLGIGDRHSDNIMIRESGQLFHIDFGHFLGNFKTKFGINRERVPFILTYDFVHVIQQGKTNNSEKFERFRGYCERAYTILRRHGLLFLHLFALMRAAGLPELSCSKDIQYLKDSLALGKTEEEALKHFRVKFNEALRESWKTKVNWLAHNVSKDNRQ

[7] = target: Phosphatidylinositol 4,5-bisphosphate 3-kinase catalytic subunit gamma isoform (Homo sapiens, UniProt P48736); experiment: Inhibition of human PI3Kgamma after 15 mins
[8] = Thermodynamic solubility of the compound in 50 mM Phosphate buffer at pH 7.4 after 16 hrs by HPLC analysis; assay type: physicochemical; conditions: phosphate buffer, pH 7.4; read-out: Therm_solubility
[9] = (§1) Drug metabolism in human liver microsomes assessed as compound lability; assay type: ADME; conditions: liver microsomes, read-out: Drug metabolism
[10] = (§2) Apparent permeability of the compound in human Caco2 cells; assay type: ADME, cell-based; conditions: Caco-2
[11] = target: T1, Phosphatidylinositol 4,5-bisphosphate 3-kinase catalytic subunit beta isoform; experiment: Inhibition of PI3Kbeta in human PTEN-deficient PC3 cells assessed as Akt phosphorylation at S473; assay type: cell-based, PC-3
[12] = test system: Mus musculus; experiment: Inhibition of PI3Kbeta in SCID mouse harboring human PTEN-deficient PC3 cells assessed as Akt phosphorylation at S473 at 100 mg/kg, po after 7 hrs; assay type: functional, organism-based; parameters: dose 100 mg/kg; conditions: PC-3
[13] = Plasma concentration in SCID mouse harboring human PTEN-deficient PC3 cells at 100 mg/kg, po after 1 hr; assay type: ADME, organism-based, PC-3; parameters: dose 100 mg/kg, route oral
[14] = test system: Mus musculus; experiment: Inhibition of PI3Kbeta in SCID mouse harboring human PTEN-deficient PC3 cells assessed as Akt phosphorylation at S473 at 100 mg/kg, po after 1 hr; assay type: functional, organism-based; parameters: dose 100 mg/kg; conditions: PC-3
[15] = test system: Mus musculus; experiment: Inhibition of PI3Kbeta in SCID mouse harboring human PTEN-deficient PC3 cells assessed as Akt phosphorylation at S473 at 100 mg/kg, po after 16 hrs; assay type: functional, organism-based; parameters: dose 100 mg/kg; conditions: PC-3
[16] = Plasma concentration in SCID mouse harboring human PTEN-deficient PC3 cells at 100 mg/kg, po after 16 hrs; assay type: ADME, organism-based, PC-3; parameters: dose 100 mg/kg, route oral
[17] = Plasma concentration in SCID mouse harboring human PTEN-deficient PC3 cells at 100 mg/kg, po after 7 hrs; assay type: ADME, organism-based, PC-3; parameters: dose 100 mg/kg, route oral
[18] = test system: Mus musculus; experiment: Inhibition of PI3Kbeta in SCID mouse harboring human PTEN-deficient PC3 cells assessed as Akt phosphorylation at S473 at 150 mg/kg, po after 7 hrs; assay type: functional, organism-based; parameters: dose 150 mg/kg; conditions: PC-3
[19] = test system: Mus musculus; experiment: Inhibition of PI3Kbeta in SCID mouse harboring human PTEN-deficient PC3 cells assessed as Akt phosphorylation at S473 at 150 mg/kg, po after 1 hr; assay type: functional, organism-based; parameters: dose 150 mg/kg; conditions: PC-3
[20] = test system: Mus musculus; experiment: Inhibition of PI3Kbeta in SCID mouse harboring human PTEN-deficient PC3 cells assessed as Akt phosphorylation at S473 at 150 mg/kg, po after 16 hrs; assay type: functional, organism-based; parameters: dose 150 mg/kg; conditions: PC-3
[21] = test system: Liver microsome; experiment: as §1; assay type: ADME; conditions: microsomes
[22] = test system: Caco-2; experiment: as §2; assay type: ADME, cell-based

Chain of Phosphatidylinositol 4,5-bisphosphate 3-kinase catalytic subunit gamma isoform (P48736 whole entry, canonical isoform): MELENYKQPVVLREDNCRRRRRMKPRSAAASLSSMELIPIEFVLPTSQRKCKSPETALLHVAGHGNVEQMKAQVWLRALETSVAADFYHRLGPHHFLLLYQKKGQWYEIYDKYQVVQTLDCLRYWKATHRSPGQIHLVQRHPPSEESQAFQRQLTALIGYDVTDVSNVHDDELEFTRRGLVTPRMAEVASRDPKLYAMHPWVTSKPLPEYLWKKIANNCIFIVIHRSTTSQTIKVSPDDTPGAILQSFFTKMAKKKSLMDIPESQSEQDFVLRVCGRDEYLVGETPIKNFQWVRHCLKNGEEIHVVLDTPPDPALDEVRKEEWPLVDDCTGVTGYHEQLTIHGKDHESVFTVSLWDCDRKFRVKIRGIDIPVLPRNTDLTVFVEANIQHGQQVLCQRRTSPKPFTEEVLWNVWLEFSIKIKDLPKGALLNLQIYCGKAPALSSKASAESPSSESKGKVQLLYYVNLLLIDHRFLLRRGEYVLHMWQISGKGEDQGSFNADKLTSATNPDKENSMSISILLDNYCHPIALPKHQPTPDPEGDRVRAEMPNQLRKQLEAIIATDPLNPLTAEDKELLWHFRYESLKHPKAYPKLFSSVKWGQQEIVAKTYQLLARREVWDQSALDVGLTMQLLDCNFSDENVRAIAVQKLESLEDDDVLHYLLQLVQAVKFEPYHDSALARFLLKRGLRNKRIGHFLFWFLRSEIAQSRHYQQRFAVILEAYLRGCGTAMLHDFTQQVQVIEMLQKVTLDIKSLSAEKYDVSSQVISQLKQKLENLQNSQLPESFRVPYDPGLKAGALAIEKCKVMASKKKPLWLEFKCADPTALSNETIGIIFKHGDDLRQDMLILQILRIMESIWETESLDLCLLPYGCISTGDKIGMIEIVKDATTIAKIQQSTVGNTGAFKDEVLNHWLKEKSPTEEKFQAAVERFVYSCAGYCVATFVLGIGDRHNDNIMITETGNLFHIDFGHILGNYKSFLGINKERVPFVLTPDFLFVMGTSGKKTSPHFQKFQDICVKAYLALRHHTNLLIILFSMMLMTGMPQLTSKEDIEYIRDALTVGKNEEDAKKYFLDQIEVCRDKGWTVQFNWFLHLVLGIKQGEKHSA
Chain of Cytochrome P450 3A4 (P08684 whole entry, canonical isoform): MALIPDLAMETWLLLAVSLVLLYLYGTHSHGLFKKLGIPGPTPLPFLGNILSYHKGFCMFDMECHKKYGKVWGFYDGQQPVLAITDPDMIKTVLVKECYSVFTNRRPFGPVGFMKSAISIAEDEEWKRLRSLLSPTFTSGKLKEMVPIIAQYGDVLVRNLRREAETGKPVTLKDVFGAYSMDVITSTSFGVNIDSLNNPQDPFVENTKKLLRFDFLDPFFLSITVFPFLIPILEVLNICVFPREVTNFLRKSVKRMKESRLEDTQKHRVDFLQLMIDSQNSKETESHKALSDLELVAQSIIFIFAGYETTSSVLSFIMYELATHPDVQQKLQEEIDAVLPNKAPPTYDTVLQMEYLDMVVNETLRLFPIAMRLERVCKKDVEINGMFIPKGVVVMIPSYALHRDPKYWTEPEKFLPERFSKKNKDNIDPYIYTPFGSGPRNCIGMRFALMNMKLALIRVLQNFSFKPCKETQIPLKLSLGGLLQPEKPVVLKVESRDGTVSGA
T1 sequence (P42338 whole entry, canonical isoform): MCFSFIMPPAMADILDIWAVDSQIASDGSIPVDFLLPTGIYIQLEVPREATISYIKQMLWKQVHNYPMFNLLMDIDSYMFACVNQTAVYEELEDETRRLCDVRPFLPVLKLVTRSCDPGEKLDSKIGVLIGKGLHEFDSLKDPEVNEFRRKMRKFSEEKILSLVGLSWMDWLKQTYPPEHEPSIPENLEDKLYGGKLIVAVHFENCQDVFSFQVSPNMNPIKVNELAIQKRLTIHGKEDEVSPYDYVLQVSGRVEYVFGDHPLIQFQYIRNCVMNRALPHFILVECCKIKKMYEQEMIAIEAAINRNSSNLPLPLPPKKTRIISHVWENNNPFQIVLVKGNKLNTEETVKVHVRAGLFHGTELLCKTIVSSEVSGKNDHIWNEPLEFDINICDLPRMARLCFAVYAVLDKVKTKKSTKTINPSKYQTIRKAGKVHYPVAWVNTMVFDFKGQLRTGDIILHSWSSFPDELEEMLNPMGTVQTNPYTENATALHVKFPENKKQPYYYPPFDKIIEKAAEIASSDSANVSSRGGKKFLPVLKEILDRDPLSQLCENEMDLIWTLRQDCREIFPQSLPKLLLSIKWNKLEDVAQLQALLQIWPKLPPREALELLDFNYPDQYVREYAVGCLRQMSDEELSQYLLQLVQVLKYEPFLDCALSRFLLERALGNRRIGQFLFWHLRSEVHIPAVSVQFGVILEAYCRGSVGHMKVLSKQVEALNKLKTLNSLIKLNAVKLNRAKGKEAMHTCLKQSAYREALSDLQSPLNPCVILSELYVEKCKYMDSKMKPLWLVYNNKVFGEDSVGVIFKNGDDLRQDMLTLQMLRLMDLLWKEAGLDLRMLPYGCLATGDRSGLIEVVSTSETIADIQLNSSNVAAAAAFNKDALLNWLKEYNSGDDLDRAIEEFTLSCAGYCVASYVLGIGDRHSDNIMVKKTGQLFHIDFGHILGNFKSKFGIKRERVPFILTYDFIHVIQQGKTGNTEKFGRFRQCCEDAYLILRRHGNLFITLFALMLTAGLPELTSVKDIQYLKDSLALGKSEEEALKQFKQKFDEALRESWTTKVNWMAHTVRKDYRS
Chain of Phosphatidylinositol 4,5-bisphosphate 3-kinase catalytic subunit alpha isoform (P42336 whole entry, canonical isoform): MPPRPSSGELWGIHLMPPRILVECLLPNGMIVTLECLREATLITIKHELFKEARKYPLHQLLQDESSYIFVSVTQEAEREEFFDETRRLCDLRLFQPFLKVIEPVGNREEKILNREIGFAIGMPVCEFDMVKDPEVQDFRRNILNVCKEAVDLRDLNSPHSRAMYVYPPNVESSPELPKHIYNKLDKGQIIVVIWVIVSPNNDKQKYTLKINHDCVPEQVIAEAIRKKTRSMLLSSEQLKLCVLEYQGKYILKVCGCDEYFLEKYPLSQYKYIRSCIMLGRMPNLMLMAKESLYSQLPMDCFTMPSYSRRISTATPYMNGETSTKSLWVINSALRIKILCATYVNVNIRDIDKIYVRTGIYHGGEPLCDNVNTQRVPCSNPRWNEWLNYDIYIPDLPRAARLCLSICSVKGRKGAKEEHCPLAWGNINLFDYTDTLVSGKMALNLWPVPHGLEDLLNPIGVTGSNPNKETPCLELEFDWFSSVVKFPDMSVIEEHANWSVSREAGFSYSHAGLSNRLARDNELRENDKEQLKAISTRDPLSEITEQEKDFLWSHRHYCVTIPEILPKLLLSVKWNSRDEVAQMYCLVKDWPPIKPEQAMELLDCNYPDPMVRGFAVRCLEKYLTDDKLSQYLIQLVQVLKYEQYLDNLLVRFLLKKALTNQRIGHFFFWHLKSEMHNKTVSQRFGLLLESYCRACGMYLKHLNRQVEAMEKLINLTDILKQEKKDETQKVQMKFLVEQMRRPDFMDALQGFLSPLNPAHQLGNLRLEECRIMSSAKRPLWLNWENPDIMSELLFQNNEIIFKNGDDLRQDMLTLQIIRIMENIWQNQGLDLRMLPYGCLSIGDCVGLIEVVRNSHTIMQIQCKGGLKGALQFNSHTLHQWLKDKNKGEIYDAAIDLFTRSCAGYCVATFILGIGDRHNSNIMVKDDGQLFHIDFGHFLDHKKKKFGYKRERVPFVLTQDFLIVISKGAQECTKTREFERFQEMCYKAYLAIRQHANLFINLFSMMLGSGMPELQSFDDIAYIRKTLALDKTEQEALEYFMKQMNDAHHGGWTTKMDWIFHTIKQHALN

| IC50 [1] [nM] | metabolised [2] [%] | IC50 [3] [nM] | IC50 [4] [nM] | IC50 [6] [nM] | IC50 [7] [nM] | solubility thermodynamic at 16 h [8] [µM] | metabolised [9] [%] | Papp [10] [×10⁻⁶ cm/s] | IC50 [11] [nM] | Compound | other results |
| --- | --- | --- | --- | --- | --- | --- | --- | --- | --- | --- | --- |
| > 10000 | 1 | 40000 | 25 | 64 | > 10000 | 5110 (≈ 2000 µg/mL) | 1 | 0.4 | 1730 | O=C(O)c1sc(N2CCOCC2)nc1CC(=O)N1CCc2cc(F)ccc21 | efflux ratio [5]: 13 |
| > 10000 | 48 | 40 | 20 | 127 | > 10000 | 45 (≈ 18.2 µg/mL) | 42 | 19.3 | 14 | CC1Cc2cc(F)ccc2N1C(=O)Cc1nc(N2CCOCC2)sc1C(N)=O (centres undefined) | – |
| 4080 | 44 | 40000 | 71 | 230 | > 10000 | 3 (≈ 1.12 µg/mL) | 35 | 16 | 25 | NC(=O)c1sc(N2CCOCC2)nc1CC(=O)N1CCc2ccccc21 | – |
| > 10000 | – | – | 178 | 435 | > 10000 | – | – | – | 40 | CC1Cc2ccccc2N1C(=O)Cc1nc(N2CCOCC2)sc1C(N)=O (racemic) | – |
| 6970 | 22 | 40000 | 22 | 134 | > 10000 | 7 (≈ 2.73 µg/mL) | 17 | 22.2 | 15 | NC(=O)c1sc(N2CCOCC2)nc1CC(=O)N1CCc2cc(F)ccc21 | inhibition [12]: Active; concentration at 1 h [13]: 310 nM; inhibition [14]: Active; inhibition [15]: Active; concentration at 16 h [16]: 4 nM; concentration at 7 h [17]: 40 nM |
| 8280 | – | – | 45 | 227 | > 10000 | – | – | – | – | NC(=O)c1sc(N2CCOCC2)nc1CC(=O)Nc1ccc(F)c(Cl)c1 | – |
| 6330 | 61 | 40000 | 49 | 277 | > 10000 | 2 (≈ 0.814 µg/mL) | 40 | – | 122 | NC(=O)c1sc(N2CCOCC2)nc1CC(=O)N1CCc2c(Cl)cccc21 | – |
| 1320 | – | 25000 | 13 | 92 | 3260 | – | 85 | 20.9 | 3 | CC1Cc2c(Br)cccc2N1C(=O)Cc1nc(N2CCOCC2)sc1C(N)=O (single isomer, unassigned; (-)) | Drug metabolism [2]: 89% |
| > 10000 | 17 | 40000 | 8 | 149 | > 10000 | 4740 (≈ 2000 µg/mL) | 8 | 0.9 | 876 | CC1Cc2c(Cl)cccc2N1C(=O)Cc1nc(N2CCOCC2)sc1C(=O)O (centres undefined) | – |
| > 10000 | – | – | 130 | 567 | 4200 | – | – | – | 75 | CC1CN(C(=O)Cc2nc(N3CCOCC3)sc2C(N)=O)c2ccccc21 (racemic) | – |
| > 10000 | – | – | 340 | 2720 | > 10000 | – | – | – | 2310 | CC1Cc2ccccc2N1C(=O)Cc1nc(N2CCOCC2)sc1C(=O)O (racemic) | – |
| 7230 | – | – | 138 | 485 | > 10000 | – | – | – | 38 | NC(=O)c1sc(N2CCOCC2)nc1CC(=O)N1CCc2c(F)cccc21 | – |
| > 10000 | 70 | – | 10 | 58 | > 10000 | 2 (≈ 0.842 µg/mL) | 77 | 29.6 | 13 | CC1Cc2c(Cl)cccc2N1C(=O)Cc1nc(N2CCOCC2)sc1C(N)=O (centres undefined) | – |
| 1120 | 0 | 40000 | 11 | 133 | > 10000 | – | 8 | 0.2 | 1780 | O=C(O)c1sc(N2CCOCC2)nc1CC(=O)N1CCc2c(Br)cccc21 | – |
| > 10000 | – | – | 270 | 1550 | > 10000 | – | – | – | 1420 | O=C(O)c1sc(N2CCOCC2)nc1CC(=O)N1CCc2ccccc21 | – |
| 2210 | 9 | 40000 | 23 | 245 | > 10000 | 1480 (≈ 602 µg/mL) | 1 | 0.7 | 2000 | O=C(O)c1sc(N2CCOCC2)nc1CC(=O)N1CCc2c(Cl)cccc21 | – |
| – | – | – | – | – | – | – | – | – | – | CC1Cc2c(Br)cccc2N1C(=O)Cc1nc(N2CCOCC2)sc1C(=O)O (single isomer, unassigned; enantiomer 1) | inhibition [18]: Active; inhibition [19]: Active; inhibition [20]: Active |
| > 10000 | 3 | 40000 | 15 | 219 | > 10000 | 4930 (≈ 2000 µg/mL) | 3 | 0.9 | 817 | CC1Cc2cc(F)ccc2N1C(=O)Cc1nc(N2CCOCC2)sc1C(=O)O (centres undefined) | – |
| 1320 | – | 40000 | 58 | 430 | > 10000 | – | – | – | 17 | CC1Cc2c(Br)cccc2N1C(=O)Cc1nc(N2CCOCC2)sc1C(N)=O (single isomer, unassigned; enantiomer 2) | Drug metabolism [2]: 67%; Drug metabolism [21]: 75%; Papp [22]: 20.7 ×10⁻⁶ cm/s |
| > 10000 | – | – | 240 | 483 | > 10000 | – | – | – | 420 | NC(=O)c1sc(N2CCOCC2)nc1CC(=O)N1CCc2cc(Br)ccc21 | – |
| > 10000 | – | – | 308 | 1000 | > 10000 | – | – | – | 3000 | O=C(O)c1sc(N2CCOCC2)nc1CC(=O)N1CCc2cc(Br)ccc21 | – |
| > 10000 | – | – | 166 | 1860 | > 10000 | – | – | – | 110 | NC(=O)c1sc(N2CCOCC2)nc1CC(=O)N1CCc2cc(Cl)ccc21 | – |
| 2150 | 63 | 40000 | 11 | 178 | 8130 | 2 (≈ 0.903 µg/mL) | 57 | 24.7 | 22 | NC(=O)c1sc(N2CCOCC2)nc1CC(=O)N1CCc2c(Br)cccc21 | – |
| 3110 | – | 40000 | 84 | 861 | 10000 | 4290 (≈ 2000 µg/mL) | 0 | – | 307 | CC1Cc2c(Br)cccc2N1C(=O)Cc1nc(N2CCOCC2)sc1C(=O)O (single isomer, unassigned; enantiomer 2) | Drug metabolism [2]: 7%; Papp [22]: 0.4 ×10⁻⁶ cm/s |
